Experimental data reported in ChEMBL document CHEMBL4049401, “Three-component, one-pot synthesis of anthranilamide Schiff bases bearing 4-aminoquinoline moiety as Mycobacterium tuberculosis gyrase inhibitors” (Bioorg Med Chem Lett, 2017).
Values after ≈ are worked out from the molar mass of the structure shown.

Legend:
[1] = test system: Mycobacterium tuberculosis; assay: Antimycobacterial activity against Mycobacterium tuberculosis H37Rv ATCC 27294 after 5 days by microplate alamar blue assay; type: functional; conditions: H37Rv ATCC 27294, 120 h
[2] = Cytotoxicity against African green monkey Vero cells assessed as cell viability at 100 uM by MTT assay relative to control; type: cell-based; conditions: chlorocebus sabaeus, read-out: Activity
[3] = n-octanol/water partition coefficient, log P of the compound; type: physicochemical

| Compound | MIC [1] [µM] | viability at 100 µM [2] [%] | logP [3] |
| --- | --- | --- | --- |
| O=C(O)c1cn(C2CC2)c2cc(N3CCNCC3)c(F)cc2c1=O [CIPROFLOXACIN] | 12.5 (≈ 4.14 µg/mL) | – | – |
| CN(C)c1ccc(/C=N/c2ccccc2C(=O)NNc2ccnc3cc(Cl)ccc23)cc1 | 3.12 (≈ 1.39 µg/mL) | 88.8 | 5.03 |
| O=C(NNc1ccnc2cc(Cl)ccc12)c1ccccc1/N=C/c1ccc(O)cc1 | 25 (≈ 10.4 µg/mL) | 90.1 | 4.65 |
| O=C(NNc1ccnc2cc(Cl)ccc12)c1ccccc1/N=C/c1ccc(Cl)cc1 | 3.12 (≈ 1.36 µg/mL) | 86.7 | 5.62 |
| COc1ccc(/C=N/c2ccccc2C(=O)NNc2ccnc3cc(Cl)ccc23)cc1OC | 6.25 (≈ 2.88 µg/mL) | 89.2 | 4.97 |
| O=C(NNc1ccnc2cc(Cl)ccc12)c1ccccc1/N=C/c1ccc(Cl)cc1Cl | 6.25 (≈ 2.94 µg/mL) | 87.6 | 6.22 |
| O=C(NNc1ccnc2cc(Cl)ccc12)c1ccccc1/N=C/C=C/c1ccccc1 | 3.12 (≈ 1.33 µg/mL) | 90.2 | 5.54 |
| O=C(NNc1ccnc2cc(Cl)ccc12)c1ccccc1/N=C/c1cccs1 | 6.25 (≈ 2.54 µg/mL) | 89.5 | 4.78 |
| O=C(NNc1ccnc2cc(Cl)ccc12)c1ccccc1/N=C/c1cc2ccccc2nc1Cl | 25 (≈ 12.2 µg/mL) | 94.3 | 6 |
| COc1cc(/C=N/c2ccccc2C(=O)NNc2ccnc3cc(Cl)ccc23)cc(OC)c1OC | 6.25 (≈ 3.07 µg/mL) | 89.4 | 4.94 |
| O=C(NNc1ccnc2cc(Cl)ccc12)c1ccccc1/N=C/c1cccc(Cl)c1Cl | 6.25 (≈ 2.94 µg/mL) | 89.1 | 6.1 |
| O=C(NNc1ccnc2cc(Cl)ccc12)c1ccccc1/N=C/c1ccc([N+](=O)[O-])cc1 | 25 (≈ 11.1 µg/mL) | 88.6 | 4.58 |
| COc1ccc(/C=N/c2ccccc2C(=O)NNc2ccnc3cc(Cl)ccc23)cc1 | 1.56 (≈ 0.672 µg/mL) | 88.9 | 5 |
| O=C(NNc1ccnc2cc(Cl)ccc12)c1ccccc1/N=C/c1ccccc1Cl | 25 (≈ 10.9 µg/mL) | 88.5 | 5.5 |
| O=C(NNc1ccnc2cc(Cl)ccc12)c1ccccc1/N=C/c1cc2ccccc2[nH]c1=O | 25 (≈ 11.7 µg/mL) | 91.1 | 4.65 |
| O=C(NNc1ccnc2cc(Cl)ccc12)c1ccccc1/N=C/c1ccc(F)cc1 | 6.25 (≈ 2.62 µg/mL) | 90.7 | 5.18 |
| O=C(NNc1ccnc2cc(Cl)ccc12)c1ccccc1/N=C/c1ccc(Cl)c(Cl)c1 | 25 (≈ 11.7 µg/mL) | 90.2 | 6.22 |
| N#Cc1ccc(/C=N/c2ccccc2C(=O)NNc2ccnc3cc(Cl)ccc23)cc1 | 25 (≈ 10.6 µg/mL) | 87.2 | 4.83 |
| O=C(NNc1ccnc2cc(Cl)ccc12)c1ccccc1/N=C/c1ccc(Br)cc1 | 6.25 (≈ 3 µg/mL) | 88.5 | 5.76 |
| COc1cc(/C=N/c2ccccc2C(=O)NNc2ccnc3cc(Cl)ccc23)ccc1Oc1ccnc2cc(Cl)ccc12 | 3.12 (≈ 1.9 µg/mL) | 89.5 | 7.74 |
| O=C(NNc1ccnc2cc(Cl)ccc12)c1ccccc1/N=C/c1ccncc1 | 25 (≈ 10 µg/mL) | 85.7 | 3.86 |
| Cc1ccc(/C=N/c2ccccc2C(=O)NNc2ccnc3cc(Cl)ccc23)cc1 | 0.78 (≈ 0.324 µg/mL) | 87.1 | 5.31 |
| NC(=O)c1cnccn1 [PYRAZINAMIDE] | 3.12 (≈ 0.384 µg/mL) | – | -0.71 |
